ChEMBL document CHEMBL4145553, “Design, synthesis, and biological evaluation of novel amide and hydrazide based thioether analogs targeting Histone deacteylase (HDAC) enzymes” (Eur J Med Chem, 2018)

How the values were obtained:
Assay type in all cases: functional
SNB-19 = test: Growth inhibition of human SNB19 cells assessed as cell growth at 10^-7 M incubated for 48 hrs by sulforhodamine B assay relative to control; conditions: SNB-19, 48 h, read-out: Activity
Hs-578T [1] = test: Growth inhibition of human Hs 578T cells incubated for 48 hrs by sulforhodamine B assay
UO-31 = test: Growth inhibition of human UO31 cells assessed as cell growth at 10^-6 M incubated for 48 hrs by sulforhodamine B assay relative to control; conditions: UO-31, 48 h, read-out: Activity
MCF7 = test: Growth inhibition of human MCF7 cells assessed as cell growth at 10^-6 M incubated for 48 hrs by sulforhodamine B assay relative to control; conditions: MCF7, 48 h, read-out: Activity
SF-295 [2] = test: Growth inhibition of human SF295 cells incubated for 48 hrs by sulforhodamine B assay; conditions: SF-295, 48 h
NCI-H23 = test: Growth inhibition of human NCI-H23 cells assessed as cell growth at 10^-4 M incubated for 48 hrs by sulforhodamine B assay relative to control; conditions: NCI-H23, 48 h, read-out: Activity
Malme-3M [3] = test: Growth inhibition of human MALME-3M cells assessed as cell growth at 10^-4 M incubated for 48 hrs by sulforhodamine B assay relative to control; conditions: read-out: Activity
ACHN [4] = test: Growth inhibition of human ACHN cells assessed as cell growth at 10^-7 M incubated for 48 hrs by sulforhodamine B assay relative to control; conditions: read-out: Activity
A498 = test: Growth inhibition of human A498 cells assessed as cell growth at 10^-7 M incubated for 48 hrs by sulforhodamine B assay relative to control; conditions: A498, 48 h, read-out: Activity
SK-OV-3 = test: Growth inhibition of human SKOV3 cells assessed as cell growth at 10^-8 M incubated for 48 hrs by sulforhodamine B assay relative to control; conditions: SK-OV-3, 48 h, read-out: Activity
SR = test: Growth inhibition of human SR cells assessed as cell growth at 10^-5 M incubated for 48 hrs by sulforhodamine B assay relative to control; conditions: read-out: Activity
Hs-578T [5] = test: Growth inhibition of human Hs 578T cells assessed as cell growth at 10^-8 M incubated for 48 hrs by sulforhodamine B assay relative to control; conditions: read-out: Activity
T47D [6] = test: Growth inhibition of human T47D cells assessed as cell growth at 10^-6 M incubated for 48 hrs by sulforhodamine B assay relative to control; conditions: read-out: Activity
TK-10 = test: Growth inhibition of human TK10 cells assessed as cell growth at 10^-4 M incubated for 48 hrs by sulforhodamine B assay relative to control; conditions: TK-10, 48 h, read-out: Activity
786-0 = test: Growth inhibition of human 786-0 cells assessed as cell growth at 10^-8 M incubated for 48 hrs by sulforhodamine B assay relative to control; conditions: 786-0, 48 h, read-out: Activity
MDA-MB-468 = test: Growth inhibition of human MDA-MB-468 cells assessed as cell growth at 10^-7 M incubated for 48 hrs by sulforhodamine B assay relative to control; conditions: MDA-MB-468, 48 h, read-out: Activity
SK-MEL-28 = test: Growth inhibition of human SK-MEL-28 cells assessed as cell growth at 10^-4 M incubated for 48 hrs by sulforhodamine B assay relative to control; conditions: SK-MEL-28, 48 h, read-out: Activity
UACC-62 = test: Growth inhibition of human UACC62 cells assessed as cell growth at 10^-7 M incubated for 48 hrs by sulforhodamine B assay relative to control; conditions: UACC-62, 48 h, read-out: Activity
SF-295 [7] = test: Growth inhibition of human SF295 cells assessed as cell growth at 10^-5 M incubated for 48 hrs by sulforhodamine B assay relative to control; conditions: SF-295, 48 h, read-out: Activity
KM12 = test: Growth inhibition of human KM12 cells assessed as cell growth at 10^-4 M incubated for 48 hrs by sulforhodamine B assay relative to control; conditions: KM12, 48 h, read-out: Activity
A549 = test: Growth inhibition of human A549/ATCC cells assessed as cell growth at 10^-6 M incubated for 48 hrs by sulforhodamine B assay relative to control; conditions: A549, 48 h, read-out: Activity
MDA-MB-231 = test: Growth inhibition of human MDA-MB-231 cells assessed as cell growth at 10^-8 M incubated for 48 hrs by sulforhodamine B assay relative to control; conditions: MDA-MB-231, 48 h, read-out: Activity
ACHN [8] = test: Growth inhibition of human ACHN cells assessed as cell growth at 10^-6 M incubated for 48 hrs by sulforhodamine B assay relative to control; conditions: read-out: Activity
HCC 2998 = test: Growth inhibition of human HCC2998 cells incubated for 48 hrs by sulforhodamine B assay; conditions: HCC 2998, 48 h
RPMI-8226 = test: Growth inhibition of human RPMI8226 cells assessed as cell growth at 10^-4 M incubated for 48 hrs by sulforhodamine B assay relative to control; conditions: RPMI-8226, 48 h, read-out: Activity
Malme-3M [9] = test: Growth inhibition of human MALME-3M cells assessed as cell growth at 10^-5 M incubated for 48 hrs by sulforhodamine B assay relative to control; conditions: read-out: Activity
OVCAR-3 = test: Growth inhibition of human OVCAR3 cells assessed as cell growth at 10^-4 M incubated for 48 hrs by sulforhodamine B assay relative to control; conditions: OVCAR-3, 48 h, read-out: Activity
T47D [10] = test: Growth inhibition of human T47D cells incubated for 48 hrs by sulforhodamine B assay
MDA-MB-435 = test: Induction of apoptosis in human MDA-MB-435 cells assessed as necrotic cells by propidium iodide/Annexin V staining based flow cytometry (reference value: 0.24%)
OVCAR-5 = test: Growth inhibition of human OVCAR5 cells assessed as cell growth at 10^-8 M incubated for 48 hrs by sulforhodamine B assay relative to control; conditions: OVCAR-5, 48 h, read-out: Activity
Hs-578T [11] = test: Growth inhibition of human Hs 578T cells assessed as cell growth at 10^-7 M incubated for 48 hrs by sulforhodamine B assay relative to control; conditions: read-out: Activity
[12] = read-out: LC50 (the source's name)
[13] = read-out: pLC50 (the source's name) (converted)

CCS/C(Nc1ccccc1)=C(\C#N)C(=O)N/N=C\c1ccc(Cl)cc1Cl
growth at 0.1 µM (SNB-19): 94%
GI50 (Hs-578T [1]; read-out: GI50): 2.74 µM
CC50 (Hs-578T [1]; [12]): > 100 µM
TGI (Hs-578T [1]; read-out: TGI): 98.7 µM
GI50 (Hs-578T [1]; read-out: pGI50 (converted)): 2.75 µM
CC50 (Hs-578T [1]; [13]): > 100 µM
TGI (Hs-578T [1]; read-out: pTGI (converted)): 97.7 µM
growth at 1 µM (UO-31): 86%
growth at 1 µM (MCF7): 83%
GI50 (SF-295 [2]; read-out: GI50): 2.89 µM
CC50 (SF-295 [2]; [12]): > 100 µM
TGI (SF-295 [2]; read-out: TGI): > 100 µM
GI50 (SF-295 [2]; read-out: pGI50 (converted)): 2.88 µM
CC50 (SF-295 [2]; [13]): > 100 µM
TGI (SF-295 [2]; read-out: pTGI): > 100 µM
growth at 100 µM (NCI-H23): 36%
growth at 100 µM (Malme-3M [3]): 26%
growth at 0.1 µM (ACHN [4]): 98%
growth at 0.1 µM (A498): 78%
growth at 0.01 µM (SK-OV-3): 99%
growth at 10 µM (SR): 28%
growth at 0.01 µM (Hs-578T [5]): 96%
growth at 1 µM (T47D [6]): 89%
growth at 100 µM (TK-10): 42%
growth at 0.01 µM (786-0): 95%
growth at 0.1 µM (MDA-MB-468): 88%
growth at 100 µM (SK-MEL-28): 45%
growth at 0.1 µM (UACC-62): 91%
growth at 10 µM (SF-295 [7]): 15%
growth at 100 µM (KM12): 22%
growth at 1 µM (A549): 92%
growth at 0.01 µM (MDA-MB-231): 101%
growth at 1 µM (ACHN [8]): 92%
GI50 (HCC 2998; read-out: GI50): 5.47 µM
CC50 (HCC 2998; [12]): > 100 µM
TGI (HCC 2998; read-out: TGI): > 100 µM
GI50 (HCC 2998; read-out: pGI50 (converted)): 5.5 µM
CC50 (HCC 2998; [13]): > 100 µM
TGI (HCC 2998; read-out: pTGI): > 100 µM
growth at 100 µM (RPMI-8226): 6%
growth at 10 µM (Malme-3M [9]): 49%
growth at 100 µM (OVCAR-3): -23%
GI50 (T47D [10]; read-out: GI50): 4.03 µM
CC50 (T47D [10]; [12]): > 100 µM
TGI (T47D [10]; read-out: TGI): > 100 µM
GI50 (T47D [10]; read-out: pGI50 (converted)): 4.07 µM
CC50 (T47D [10]; [13]): > 100 µM
TGI (T47D [10]; read-out: pTGI): > 100 µM
Activity (MDA-MB-435): 0.89%
growth at 0.01 µM (OVCAR-5): 105%
growth at 0.1 µM (Hs-578T [11]): 92%

CCS/C(Nc1ccccc1)=C(\C#N)C(=O)Nc1ccc(OC)cc1
growth at 0.1 µM (SNB-19): 95%
GI50 (Hs-578T [1]; read-out: GI50): 4.07 µM
CC50 (Hs-578T [1]; [12]): > 100 µM
TGI (Hs-578T [1]; read-out: TGI): > 100 µM
GI50 (Hs-578T [1]; read-out: pGI50 (converted)): 4.07 µM
CC50 (Hs-578T [1]; [13]): > 100 µM
TGI (Hs-578T [1]; read-out: pTGI (converted)): > 100 µM
growth at 1 µM (UO-31): 87%
growth at 1 µM (MCF7): 77%
GI50 (SF-295 [2]; read-out: GI50): 3.06 µM
CC50 (SF-295 [2]; [12]): > 100 µM
TGI (SF-295 [2]; read-out: TGI): > 100 µM
GI50 (SF-295 [2]; read-out: pGI50 (converted)): 3.09 µM
CC50 (SF-295 [2]; [13]): > 100 µM
TGI (SF-295 [2]; read-out: pTGI): > 100 µM
growth at 100 µM (NCI-H23): 21%
growth at 100 µM (Malme-3M [3]): 45%
growth at 0.1 µM (ACHN [4]): 93%
growth at 0.1 µM (A498): 90%
growth at 0.01 µM (SK-OV-3): 103%
growth at 10 µM (SR): 21%
growth at 0.01 µM (Hs-578T [5]): 97%
growth at 1 µM (T47D [6]): 88%
growth at 100 µM (TK-10): 24%
growth at 0.01 µM (786-0): 97%
growth at 0.1 µM (MDA-MB-468): 86%
growth at 100 µM (SK-MEL-28): 37%
growth at 0.1 µM (UACC-62): 93%
growth at 10 µM (SF-295 [7]): 16%
growth at 100 µM (KM12): 7%
growth at 1 µM (A549): 99%
growth at 0.01 µM (MDA-MB-231): 104%
growth at 1 µM (ACHN [8]): 90%
GI50 (HCC 2998; read-out: GI50): 6.56 µM
CC50 (HCC 2998; [12]): > 100 µM
TGI (HCC 2998; read-out: TGI): > 100 µM
GI50 (HCC 2998; read-out: pGI50 (converted)): 6.61 µM
CC50 (HCC 2998; [13]): > 100 µM
TGI (HCC 2998; read-out: pTGI): > 100 µM
growth at 100 µM (RPMI-8226): 5%
growth at 10 µM (Malme-3M [9]): 61%
growth at 100 µM (OVCAR-3): -15%
GI50 (T47D [10]; read-out: GI50): 4.08 µM
CC50 (T47D [10]; [12]): > 100 µM
TGI (T47D [10]; read-out: TGI): > 100 µM
GI50 (T47D [10]; read-out: pGI50 (converted)): 4.07 µM
CC50 (T47D [10]; [13]): > 100 µM
TGI (T47D [10]; read-out: pTGI): > 100 µM
Activity (MDA-MB-435): 1.63%
growth at 0.01 µM (OVCAR-5): 104%
growth at 0.1 µM (Hs-578T [11]): 96%
